Tests used:
[1] = target: HLA-A3 class I molecule (Homo sapiens, UniProt P04439); test: class I binding assay, HLA-A3; conditions: Table 2 MAGE CTL targets, column A3; unit not given
Procedure: (§1) Peptides comprising the CTL epitopes are synthesized and the ability to bind appropriate MHC molecules is determined in assays using, for example, purified class I molecules and radioiodinated peptides and/or cells expressing empty class I molecules by, for instance, immunofluorescent staining and flow microfluorimetry, peptide-dependent class I assembly assays, and inhibition of CTL recognition by peptide competition. Those peptides that bind to the class I molecule are further chosen for their ability to serve as targets for CTLs derived from afflicted individuals, as well as for their capacity to induce primary in vitro or in vivo CTL responses that can give rise to CTL populations capable of reacting with tumor cells as therapeutic agents. Methods for determining allele-specific peptides and peptide motifs are described in co-pending commonly owned applications U.S. Ser. No. 027,146 and U.S. Ser. No. 027,746, which are incorporated herein by reference.
(§2) These peptides were then evaluated as to their capacity to bind to the appropriate class I molecules using specific binding assays as described in copending and commonly owned application U.S. Ser. No. 08/027,746, incorporated herein by reference.

[2] = test system: HLA-A11 class I molecule; test: class I binding assay, HLA-A11; set-up: species or system human; conditions: Table 2 MAGE CTL targets, column A11; unit not given
Procedure: as §1, §2

[3] = test system: HLA-A1 class I molecule; test: class I binding assay, HLA-A1; set-up: species or system human; conditions: Table 2 MAGE CTL targets, column A1; unit not given
Procedure: as §1, §2

[4] = target: HLA-A2 class I molecule (Homo sapiens, UniProt P04439, D140Y/D185E/D98H/E176V/E277Q/G131W/G231S/I119V/I121R/I166T/I218V/L300P/L318F/N151K/N90K/P208A/P217A/Q86G/Q94H/R138H/R169H/T345S); test: class I binding assay, HLA-A2; conditions: Table 2 MAGE CTL targets, column A2; unit not given
Procedure: as §1, §2

[5] = test system: HLA-A24 class I molecule; test: class I binding assay, HLA-A24; set-up: species or system human; conditions: Table 2 MAGE CTL targets, column A24; unit not given
Procedure: as §1, §2

[6] = target: HLA-A1 class I molecule (human); test: class I binding assay as described in U.S. Ser. No. 08/027,746; format not described here
[7] = target: HLA-A24.1 class I molecule (human); test: as above

## ALAETSYVK [Id 1072.38, MAGE-1 C-terminal peptide, position 271,9-mer, motif A03/11]
[1]
  A3 (binding to class I molecule): 0.3100
[2]
  A11 (binding to class I molecule): 0.3600

## LVQEKYLEY [Id 1072.42, MAGE-1 peptide, position 243,9-mer, motif A11]
[1]
  A3 (binding to class I molecule): 0.0026
[2]
  A11 (binding to class I molecule): 0.0340

## TSYVKVLEY [Id 1072.29, MAGE-1 C-terminal peptide, position 275,9-mer, motif A01/11]
[3]
  A1 (binding to class I molecule): 0.0990

## RVRFFFPSLR [Id 1072.37, MAGE-1 C-terminal peptide, position 290, 10-mer, motif A03/11]
[1]
  A3 (binding to class I molecule): 0.4300
[2]
  A11 (binding to class I molecule): 0.0089

## DLVQEKYLEY [1072 40, MAGE-1 peptide, position 242, 10-mer, motif A03]
[1]
  A3 (binding to class I molecule): 0.0320
[2]
  A11 (binding to class I molecule): 0.0051

## ALAETSYVKV [Id 1072.33]
[4]
  A2 (binding to class I molecule): 0.0150

## RALAETSYVK (RALAETSYVKVK) [Id 1072.39, MAGE-1 C-terminal peptide, position 270, 10-mer, motif A03/11]
[1]
  A3 (binding to class I molecule): 0.1800
[2]
  A11 (binding to class I molecule): 0.2400

## ETSYVKVLEY [Id 1072.28, MAGE-1 C-terminal peptide, position 274, 10-mer, motif A01/11]
[3]
  A1 (binding to class I molecule): 0.5600

## YVIKVSARVR [Id 1072.41, MAGE-1 C-terminal peptide, position 283, 10-mer, motif A03]
[1]
  A3 (binding to class I molecule): 0.0190
[2]
  A11 (binding to class I molecule): 0.0009

## YVIKVSARV [Id 1072.34]
[4]
  A2 (binding to class I molecule): 0.0140

## TSYVKVLEY [Id 1072.36, MAGE-1 C-terminal peptide, position 275,9-mer, motif A03/11]
[1]
  A3 (binding to class I molecule): 0.7100
[2]
  A11 (binding to class I molecule): 0.0100

## SYVKVLEYVI [Id 1072.43, MAGE-1 C-terminal peptide, position 276, 10-mer, motif A24]
[5]
  A24 (binding to class I molecule): 0.0360

## TSYVKVLEY
[6]
  binding value under column A1 (quantity not explained): 0.099

## SYVKVLEYVI
[7]
  binding value under column A24 (quantity not explained): 0.036

## ETSYVKVLEY
[6]
  binding value under column A1 (quantity not explained): 0.56

Reference: patent US6464980B1, “MAGE-1 c-terminal immunogenic peptides” (Epimmune Inc., priority 1993, dated 2002)
